B1: CDMO: cyclododecanone monooxygenase of Pseudomonas putida HI-70, encoded by cdnB, amino acid sequence SEQ ID NO:8 (protein)
chain: MSQLIQEPAEAGVTSQKVSFDHVALREKYRQERDKRLRQDGQEQYLEVAVTCDEYLKDPYADPIVRDPVVRETDVFIIGGGFGGLLAAVRLQQAGVSDYVMVERAGDYGGTWYWNRYPGAQCDIESYVYMPLLEEMGYIPTEKYAFGTEILEYSRSIGRKFGLYERTYFQTEVKDLSWDDEAARWRITTDRGDKFSARFVCMSTGPLQRPKLPGIPGITSFKGHSFHTSRWDYSYTGGDQTGNLEGLKDKRVAIIGTGATSIQAVPHLAAYAQELYVIQRTPISVGFRGNKPTDPEWAKSLQPGWQQARMDNFNAITHGMPVDVDLVQDSWTKIFGEIGVFLGSDGSRAQMVDFQLMEQIRARVDQEVKDPATAESLKPYYNIMCKRPGFHDSYLPSFNKPNVTLVDTQGAGVERITEKGLVVNGREYEVDCLIYATGFEYQTKLSRRNGYEIHGRNGQPLSDKWKDGLSTLWGYHIRDFPNCFILGNGQSAVTPNFTHMLNEAGKHVAYVVKHCLDERVDVFEPTAEAEQAWVDHVMSFAGIKQQYDRECTPSYYNNEGQVNDVALTRTTSTRAVRSLINILREWREKGDFAQFQQRKR
modifications: Primer

How the values were obtained:
[1] = test system: cyclododecanone monooxygenase (CDMO); experiment: Substrate specificity of cloned CDMO (relative activity towards cyclic ketones); type: biochemical, Pseudomonas putida strain HI-70; conditions: ketone as substrate, cyclododecanone = 100%
[2] = test system: cyclododecanone monooxygenase (CDMO); experiment: Comparison of CDMO activity in E. coli and native HI-70; type: biochemical, Pseudomonas putida strain HI-70

Molecule | relative activity [1] | CDMO activity ([2]; from E. coli DH5α(pSD-cdnB)) | CDMO activity ([2]; original P. putida strain HI-70)
O=C1CCCCCCCCC1 [cyclodecanone] | 10% | – | –
O=C1CCCCCCCCCCC1 [cyclododecanone] | 100% | – | –
O=C1CCCCCCCCCCCCCC1 [cyclopentadecanone] | 144% | – | –
O=C1CCCCCCCCCCCC1 [cyclotridecanone] | 138% | – | –
O=C1CCCCCCCCCC1 [cycloundecanone] | 56% | – | –
B1 | – | 0.48 U/mg of protein | 0.14 U/mg of protein

Reference: patent US7217559B2, “Gene encoding cyclododecanone monooxygenase” (National Research Council of Canada, priority 2002, dated 2007)
